Values quoted from earlier work, collected in patent US20040248933A1, “Use of 4-phenyl-substituted tetrahydroisoquinolines in the treatment of pain, migraine headaches and urinary incontinence” (priority 2002, published 2004).

System: nocturnal enuresis patients
Details: patients with nocturnal enuresis following treatment

CN(C)CCCN1c2ccccc2CCc2ccccc21 [imipramine, Imipramine]
Enuresis cured, share of patients: over 50% | Improvements seen, further share of patients (in addition to those cured): 15-20%
